{"source": "ChEMBL document CHEMBL1146941", "about": "“Synthesis of pyrazinamide Mannich bases and its antitubercular properties” (2006)", "data": [{"test_system": "Mycobacterium tuberculosis", "assay": "Antimycobacterial activity against multi drug resistant Mycobacterium tuberculosis", "type": "functional", "units": {"MIC90": "µg/mL"}, "values": [{"smiles": "O=C(NCN1CCN(c2ccccn2)CC1)c1cnccn1", "MIC90": "> 25"}, {"smiles": "O=C(NCN1CCN(c2ccc(C(F)(F)F)cc2)CC1)c1cnccn1", "MIC90": 1.76}, {"smiles": "CN1CCN(CNC(=O)c2cnccn2)CC1", "MIC90": "> 25"}, {"smiles": "O=C(NCN1CCN(Cc2ccccc2)CC1)c1cnccn1", "MIC90": "> 25"}, {"smiles": "O=C(NCN1CCN(c2cccc(Cl)c2)CC1)c1cnccn1", "MIC90": 6.25}, {"smiles": "O=C(NCN1CCN(c2ccc(Cl)cc2)CC1)c1cnccn1", "MIC90": 12.5}, {"smiles": "COc1ccc(N2CCN(CNC(=O)c3cnccn3)CC2)cc1", "MIC90": "> 25"}, {"smiles": "O=C(NCN1CCN(c2ccc([N+](=O)[O-])cc2)CC1)c1cnccn1", "MIC90": 6.25}, {"smiles": "COc1cccc(N2CCN(CNC(=O)c3cnccn3)CC2)c1", "MIC90": "> 25"}, {"smiles": "O=C(NCN1CCN(c2ccccc2)CC1)c1cnccn1", "MIC90": "> 25"}, {"smiles": "CCn1cc(C(=O)O)c(=O)c2cc(F)c(N3CCN(CNC(=O)c4cnccn4)CC3)cc21", "MIC90": 0.78}, {"smiles": "O=C(NCN1CCN(c2cc3c(cc2F)c(=O)c(C(=O)O)cn3C2CC2)CC1)c1cnccn1", "MIC90": 0.78}, {"smiles": "CCn1cc(C(=O)O)c(=O)c2cc(F)c(N3CCN(CNC(=O)c4cnccn4)CC3)c(F)c21", "MIC90": 0.78}, {"smiles": "O=C(NCN1CCN(c2ncccn2)CC1)c1cnccn1", "MIC90": "> 25"}, {"smiles": "COc1ccccc1N1CCN(CNC(=O)c2cnccn2)CC1", "MIC90": "> 25"}, {"smiles": "O=C(NCN1CCN(c2ccc(F)cc2)CC1)c1cnccn1", "MIC90": 1.76}, {"smiles": "NC(=O)c1cnccn1", "note": "[PYRAZINAMIDE]", "MIC90": "> 25"}]}]}
